These results are taken from US12364671B1, “Methods of administering vitamin A and lactic acid to gilts” (CHINA AGRICULTURAL UNIVERSITY, priority 2024, dated 2025).

Test [1] concerns cows with reproductive disorders. Conditions: vitamin A 50000 IU per day, alone or with carotene 200 mg per day; cited from earlier work.
Test [2] concerns sheep. As to conditions: 50000 IU per day, continuously fed by 50 days; cited from earlier work.
The test system of test [3] is gilts. The experiment in a line: Extra vitamin A fed to gilts prior to estrus initiation. Conditions: extra vitamin A in addition to the diet, no lactic acid. In kind it is in vivo. From the text:
Therefore, the inventors speculated that the lactic acid may be beneficial to the puberty onset and estrus of the gilts.

Regarding vitamin A, in test [1], the conception rate result was “significantly increased”, the estrogen level result is “significantly increased”, the estrus ate result is reported as “not significantly affected” and the follicle size entry was “not significantly affected”. In addition, in test [2], the estrus rate entry was “no significantly affected” and the lambing rate result is “significantly increased”. For the same substance, in test [3], the “delayed estrus initiation or estrus disorder” value is on record as “improve the delayed estrus initiation or estrus disorder in gilts to some extent”.
